Results reported in patent publication US8084486B2, “Substituted arylpyrazoles” (Pfizer Limited, priority 2003, dated 2011).

Tested on: Ctenocephalides felis
Assay: flea membrane feed screen
Design: species or system Ctenocephalides felis (cat flea)
Conditions: at 30 μg/ml
Method: The flea membrane feed screen is used to measure the biological activities of the compounds claimed. The assay involves in vitro testing against Ctenocephalides felis conducted according to the following general procedure.
Fleas are cultured in vitro using dog blood. 25-30 adult Ctenocephalides felis (cat flea) were collected and placed in a test chamber (50 ml polystyrene tube with fine nylon mesh sealing the end). Citrated dog blood was prepared by adding aqueous sodium citrate solution (10 ml, 20% w/v, 20 g sodium citrate in 100 ml water) to dog blood (250 ml). Test compounds were dissolved in dimethylsulfoxide to give a working stock solution of 4 mg/ml. The stock solution (12.5 μl) was added to citrated dog blood (5 ml) to give an initial test concentration of 10 μg/ml. For testing at 30 μg/ml, working stock solutions of 12 mg/ml were prepared.
Citrated dog blood containing the test compound (5 ml, 10 μg/ml) was placed into a plastic petri dish lid, which was kept at 37° C. on a heated pad. Parafilm was stretched over the open top to form a tight membrane for the fleas to feed through. The test chamber containing the fleas was placed carefully onto the parafilm membrane and the fleas commenced feeding. […]
The fleas were observed and the percentage of fleas killed recorded. […]

N#Cc1nn(-c2c(Cl)cc(C(F)(F)F)cc2Cl)c(N)c1C1CC1(Br)Br (stereo not shown) [5-amino-3-cyano-4-(2,2-dibromocyclopropyl)-1-(2,6-dichlorophenyl-4-trifluoromethyl-)pyrazole]
activity in the ED80 flea screen: inactive
